Tested on: amputated P2 bone
Test: Multiple treatments targeting chondrogenesis after P2 amputation
Format: in vivo, adult CD-1 mice
Details: 98 days after amputation
Protocol: Amputation Surgery and Device Attachment and Removal—All experiments were performed under the approval of Tuft's IACUC. All animals were housed in 12-hour light and dark cycles and fed using the recommended feed. Female CD-1 (Charles River Laboratories, Wilmington, MA) and FVB/NJ mice (Jackson Laboratories, Bar Harbor, ME) from 8 to 10 weeks of age were used in the study. Animals were anesthetized with isoflurane administered at 2 to 5% air composition. For single treatment (FIG. 20A), P2 amputation in hindlimb digit 3 was made using a scalpel under a dissection microscope. Immediately after P2 amputation, the dragonskin insert containing silk hydrogel with or without bioactive molecules was then attached to the amputated digit using Skin Tite™ Bioadhesive (Smooth-On, PA). Prior to hydrogel loading, all materials and tools used in the experiment (e.g. surgical tools and device components) were autoclaved to ensure sterility. Devices were attached for various time periods and the amputation digits were then allowed to heal after device removal. For the approach to target active chondrogenesis (FIG. 20B), hindlimb digit 3 was amputated at P2 level and allowed to heal conservatively for 7 to 9 days. […]

## insulin-like growth factor-1 [IGF-1]
  P2 bone elongation: promote P2 bone elongation

From US20260007720A1, “TISSUE REGENERATIVE MULTI-DRUG COCKTAIL AND APPARATUS FOR DELIVERY THEREOF” (priority 2022, published 2026)
